{
  "source": "paper PMC8582472",
  "about": "“Investigation of Novel Small Molecular TRPM4 Inhibitors in Colorectal Cancer Cells” (Cancers, 2021)",
  "target": "TRPM4 (Homo sapiens, UniProt Q8TD43)",
  "sequence (Q8TD43 whole entry)": "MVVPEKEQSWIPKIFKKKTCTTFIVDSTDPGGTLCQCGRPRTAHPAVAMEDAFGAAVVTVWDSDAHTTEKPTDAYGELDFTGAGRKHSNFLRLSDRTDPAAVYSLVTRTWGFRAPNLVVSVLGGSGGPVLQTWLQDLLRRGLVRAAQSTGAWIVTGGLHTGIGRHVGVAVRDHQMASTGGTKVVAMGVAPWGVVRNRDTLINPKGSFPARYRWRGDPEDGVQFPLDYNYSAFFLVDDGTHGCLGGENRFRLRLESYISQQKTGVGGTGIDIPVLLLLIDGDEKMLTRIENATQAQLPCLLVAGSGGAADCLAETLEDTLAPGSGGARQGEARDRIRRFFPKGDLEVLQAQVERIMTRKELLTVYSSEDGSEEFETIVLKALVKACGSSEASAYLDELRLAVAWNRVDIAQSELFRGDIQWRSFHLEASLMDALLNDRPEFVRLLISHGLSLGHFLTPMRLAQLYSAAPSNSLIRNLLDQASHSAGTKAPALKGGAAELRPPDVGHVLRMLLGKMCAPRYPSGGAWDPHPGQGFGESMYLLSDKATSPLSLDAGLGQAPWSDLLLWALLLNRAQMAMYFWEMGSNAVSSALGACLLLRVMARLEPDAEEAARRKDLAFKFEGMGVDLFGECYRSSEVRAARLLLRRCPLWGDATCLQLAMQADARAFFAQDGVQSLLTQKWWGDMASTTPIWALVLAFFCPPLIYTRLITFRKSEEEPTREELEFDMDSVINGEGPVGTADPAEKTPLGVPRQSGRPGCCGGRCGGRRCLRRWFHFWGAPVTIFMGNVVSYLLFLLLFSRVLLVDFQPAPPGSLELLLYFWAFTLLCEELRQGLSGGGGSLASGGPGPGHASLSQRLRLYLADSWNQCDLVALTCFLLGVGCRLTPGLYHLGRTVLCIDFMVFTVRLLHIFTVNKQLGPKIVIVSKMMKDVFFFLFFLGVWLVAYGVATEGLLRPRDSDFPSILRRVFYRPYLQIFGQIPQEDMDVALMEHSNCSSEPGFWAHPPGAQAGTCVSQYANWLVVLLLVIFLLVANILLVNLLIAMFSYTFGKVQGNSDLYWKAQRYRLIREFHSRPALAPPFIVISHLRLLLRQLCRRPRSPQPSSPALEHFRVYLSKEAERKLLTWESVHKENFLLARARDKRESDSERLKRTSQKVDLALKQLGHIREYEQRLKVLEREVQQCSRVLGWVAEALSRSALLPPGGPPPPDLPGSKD",
  "test": "whole-cell patch clamp of endogenous TRPM4 currents in HCT116 cells",
  "assay_type": "cell-based",
  "data": [
    {"molecule": "Cc1cc(Cl)ccc1OC(C)C(=O)Nc1cc(Cl)ccc1C(=O)O", "note": "(stereo not shown) [LBA, 4-chloro-2-(2-(4-chloro-2-methylphenoxy)propanamido) benzoic acid]", "values": [
      {"measurement": "IC50", "value": 1840, "unit": "nM"}
    ]}
  ]
}
